According to patent US9951021B2, “Compounds for inhibiting c-Myc/Max/DNA complex formation” (NATIONAL CANCER CENTER, priority 2016, dated 2018):

Molecular target: T1, recombinant c-Myc/Max (Homo sapiens, UniProt P01106+P61244)
T1 construct: made in house
Test: Electrophoretic mobility shift assay (EMSA): inhibitory activity on DNA binding of recombinant c-Myc/Max
Settings: read-out: protein assay IC50
Method: 1) Preparation of Recombinant c-Myc and Max Proteins
Recombinant proteins were prepared as described in the following references: K. C. Jung et al., Fatty Acids, Inhibitors for the DNA Binding of c-Myc/Max Dimer, Suppress Proliferation and Induce Apoptosis of Differentiated HL-60 Human Leukemia Cell, Leukemia, 2006, 20(1), 122-7 or Kyung-Chae Jeong et al., Small-Molecule Inhibitors of c-Myc Transcriptional Factor Suppress Proliferation and Induce Apoptosis of Promyelocytic Leukemia Cell via Cell Cycle Arrest, Mol. BioSyst., 2010, 6, 1503-1509.
2) Electrophoretic Mobility Shift Assay (EMSA)
The inhibitory activity of each candidate compound on DNA binding of recombinant c-Myc/Max was measured using an electrophoretic mobility shift assay (EMSA). The ratio of protein-DNA complexes in each sample was evaluated by measuring band intensity. The oligonucleotides (E-box) corresponding to the consensus binding site of Myc/Max were dimerized through an annealing process. The protein mixture was incubated at room temperature for 5 minutes, and a DMSO solution containing each candidate compound was added thereto. The mixture was further incubated for 5 minutes, and the biotinylated DNA was added. To achieve a state of equilibrium, the final mixture was incubated at room temperature for 10 minutes. The protein-DNA complexes were separated from unbound free DNA by pre-electrophoresis using 8% polyacrylamide gel and 1×TBE buffer. After pre-electrophoresis, electrophoresis was performed at 120 V for 1 hour in 1×TBE buffer. Each band was visualized using HRP-conjugated streptavidin and an ECL solution, and band intensity was measured using image analysis software.

T1 sequence (P01106 whole entry): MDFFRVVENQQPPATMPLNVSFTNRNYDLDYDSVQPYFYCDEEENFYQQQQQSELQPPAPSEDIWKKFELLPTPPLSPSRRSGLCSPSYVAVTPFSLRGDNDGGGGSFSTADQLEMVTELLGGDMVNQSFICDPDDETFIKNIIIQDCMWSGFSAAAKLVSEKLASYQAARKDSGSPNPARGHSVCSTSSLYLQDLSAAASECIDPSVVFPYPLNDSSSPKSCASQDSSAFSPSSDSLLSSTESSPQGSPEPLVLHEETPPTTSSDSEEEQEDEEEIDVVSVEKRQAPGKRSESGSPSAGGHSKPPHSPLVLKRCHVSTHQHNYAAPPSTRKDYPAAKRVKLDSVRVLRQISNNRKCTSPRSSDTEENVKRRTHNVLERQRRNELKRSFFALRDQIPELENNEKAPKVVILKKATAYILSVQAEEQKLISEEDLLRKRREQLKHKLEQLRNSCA
T1 sequence (P61244 whole entry): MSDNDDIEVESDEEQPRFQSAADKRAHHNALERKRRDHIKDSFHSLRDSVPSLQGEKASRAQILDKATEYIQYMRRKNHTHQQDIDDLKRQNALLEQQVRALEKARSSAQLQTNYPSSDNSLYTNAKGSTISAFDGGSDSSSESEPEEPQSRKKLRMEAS

Structure (SMILES)	IC50 [nM]
CC(=O)c1c([S+](C)[O-])[nH]c2c(Br)ccc(Cl)c2c1=O (centres unmarked) [Compound 1, 3-acetyl-8-bromo-5-chloro-2-(methylsulfinyl)quinolin-4(1H)-one]	< 1000
CSc1[nH]c2c(Br)ccc(Cl)c2c(=O)c1C(C)=O [Compound 2, 3-acetyl-8-bromo-5-chloro-2-(methylthio)quinolin-4(1H)-one]	< 1000
CSc1c(C(C)=O)c(=O)c2c(Cl)ccc(Br)c2n1C [Compound 5, 3-acetyl-8-bromo-5-chloro-1-methyl-2-(methylthio)quinolin-4(1H)-one]	< 1000
CC(=O)c1c([S+](C)[O-])[nH]c2c(Cl)ccc(Cl)c2c1=O (centres unmarked) [Compound 6, 3-acetyl-5,8-dichloro-2-(methylsulfinyl)quinolin-4(1H)-one]	< 1000
CSc1c(C(C)=O)c(=O)c2cc(F)ccc2n1C [Compound 7, 3-acetyl-6-fluoro-1-methyl-2-(methylthio)quinolin-4(1H)-one]	< 1000
CSc1[nH]c2ccc(F)cc2c(=O)c1C(C)=O [Compound 8, 1-(6-fluoro-4-hydroxy-2-(methylthio)quinolin-3-yl)ethan-1-one]	< 1000
CC(=O)c1c([S+](C)[O-])n(C(=O)c2ccc(Br)cc2)c2c(Br)ccc(Cl)c2c1=O (centres unmarked) [Compound 9, 3-acetyl-8-bromo-1-(4-bromobenzoyl)-5-chloro-2-(methylsulfinyl)quinolin-4(1H)-one]	< 1000
CC(=O)c1c(SCc2ccc(Cl)cc2)[nH]c2c(Br)ccc(Cl)c2c1=O [Compound 10, 3-acetyl-8-bromo-5-chloro-2-((4-chlorobenzyl)thio)quinolin-4(1H)-one]	< 1000
CC(=O)c1c([S+]([O-])Cc2ccc(Cl)cc2)[nH]c2c(Br)ccc(Cl)c2c1=O (centres unmarked) [Compound 11, 3-acetyl-8-bromo-5-chloro-2-((4-chlorobenzyl)sulfinyl)quinolin-4(1H)-one]	< 1000
CC(=O)c1c(Sc2ccccc2)[nH]c2c(Br)ccc(Cl)c2c1=O [Compound 12, 3-acetyl-8-bromo-5-chloro-2-(phenylthio)quinolin-4(1H)-one]	< 1000
CC(=O)c1c([S+]([O-])c2ccccc2)[nH]c2c(Br)ccc(Cl)c2c1=O (centres unmarked) [Compound 13, 3-acetyl-8-bromo-5-chloro-2-(phenylsulfinyl)quinolin-4(1H)-one]	< 1000
COc1ccccc1Sc1[nH]c2c(Br)ccc(Cl)c2c(=O)c1C(C)=O [Compound 14, 3-acetyl-8-bromo-5-chloro-2-((2-methoxyphenyl)thio)quinolin-4(1H)-one]	< 1000
COc1ccccc1[S+]([O-])c1[nH]c2c(Br)ccc(Cl)c2c(=O)c1C(C)=O (centres unmarked) [Compound 15, 3-acetyl-8-bromo-5-chloro-2-((2-methoxyphenyl)sulfinyl)quinolin-4(1H)-one]	< 1000
CC(=O)c1c(Sc2ccc(Br)cc2)[nH]c2c(Br)ccc(Cl)c2c1=O [Compound 16, 3-acetyl-8-bromo-2-((4-bromophenyl)thio)-5-chloroquinolin-4(1H)-one]	< 1000
CC(=O)c1c([S+]([O-])c2ccc(Br)cc2)[nH]c2c(Br)ccc(Cl)c2c1=O (centres unmarked) [Compound 17, 3-acetyl-8-bromo-2-((4-bromophenyl)sulfinyl)-5-chloroquinolin-4(1H)-one]	< 1000
CSc1c(C(C)=O)c(=O)c2c(Cl)ccc(Br)c2n1C(C)=O [Compound 18, 1,1′-(8-bromo-5-chloro-2-(methylthio)-4-oxoquinoline-1,3(4H)-diyl)bis(ethan-1-one)]	< 1000
CC(=O)c1c([S+](C)[O-])n(C(C)=O)c2c(Br)ccc(Cl)c2c1=O (centres unmarked) [Compound 19, 1,1′-(8-bromo-5-chloro-2-(methylsulfinyl)-4-oxoquinoline-1,3-(4H)-diyl)bis(ethan-1-one)]	< 1000
CC(=O)c1c([S+]([O-])Cc2ccccc2)n(C(=O)c2ccc(Br)cc2)c2c(Br)ccc(Cl)c2c1=O (centres unmarked) [Compound 20, 3-acetyl-2-(benzylsulfinyl)-8-bromo-1-(4-bromobenzoyl)-5-chloroquinolin-4(1H)-one]	< 1000
CC(=O)c1c(S(C)(=O)=O)n(C(=O)c2ccc(Br)cc2)c2c(Br)ccc(Cl)c2c1=O [Compound 21, 3-acetyl-8-bromo-1-(4-bromobenzoyl)-5-chloro-2-(methylsulfonyl)quinolin-4(1H)-one]	< 1000

Structure (SMILES)	IC50 [nM]
CC(=O)c1c([S+](C)[O-])n(Cc2ccc(F)c(Cl)c2)c2c(Br)ccc(Cl)c2c1=O (centres unmarked) [Compound 22, 3-acetyl-8-bromo-5-chloro-1-(3-chloro-4-fluorobenzyl)-2-(methylsulfinyl)quinolin-4(1H)-one]	< 1000
CC(=O)c1c(SCc2ccccc2)n(C(=O)c2ccc(Br)cc2)c2c(Br)ccc(Cl)c2c1=O [Compound 23, 3-acetyl-2-(benzylthio)-8-bromo-1-(4-bromobenzoyl)-5-chloroquinolin-4(1H)-one]	< 1000
CC(=O)c1c(SC(C)C)[nH]c2c(Br)ccc(Cl)c2c1=O [Compound 24, 3-acetyl-8-bromo-5-chloro-2-(isopropylthio)quinolin-4(1H)-one]	< 1000
CC(=O)c1c([S+]([O-])C(C)C)[nH]c2c(Br)ccc(Cl)c2c1=O (centres unmarked) [Compound 25, 3-acetyl-8-bromo-5-chloro-2-(isopropylsulfinyl)quinolin-4(1H)-one]	< 1000
CC(=O)c1c([S+]([O-])C(C)c2ccccc2)[nH]c2c(Br)ccc(Cl)c2c1=O (centres unmarked) [Compound 26, 3-acetyl-8-bromo-5-chloro-2-((1-phenylethyl)sulfinyl)quinolin-4(1H)-one]	< 1000
CC(=O)c1c(SCc2cccc(C#N)c2)[nH]c2c(Br)ccc(Cl)c2c1=O [Compound 27, 3-(((3-acetyl-8-bromo-5-chloro-4-oxo-1,4-dihydroquinolin-2-yl)thio)methyl)benzonitrile]	< 1000
CC(=O)c1c([S+]([O-])Cc2cccc(C#N)c2)[nH]c2c(Br)ccc(Cl)c2c1=O (centres unmarked) [Compound 28, 3-(((3-acetyl-8-bromo-5-chloro-4-oxo-1,4-dihydroquinolin-2-yl)sulfinyl)methyl)benzonitrile]	< 1000
CC(=O)c1c([S+]([O-])Cc2ccc(F)cc2F)[nH]c2c(Br)ccc(Cl)c2c1=O (centres unmarked) [Compound 29, 3-acetyl-8-bromo-5-chloro-2-((2,4-difluorobenzyl)sulfinyl)quinolin-4(1H)-one]	< 1000
CC(=O)c1c(SCc2ccc(F)c(Cl)c2)[nH]c2c(Br)ccc(Cl)c2c1=O [Compound 30, 3-acetyl-8-bromo-5-chloro-2-((3-chloro-4-fluorobenzyl)thio)quinolin-4(1H)-one]	< 1000
CC(=O)c1c([S+]([O-])Cc2ccc(F)c(Cl)c2)[nH]c2c(Br)ccc(Cl)c2c1=O (centres unmarked) [Compound 31, 3-acetyl-8-bromo-5-chloro-2-((3-chloro-4-fluorobenzyl)sulfinyl)quinolin-4(1H)-one]	< 1000
CC(=O)c1c(SCc2ccc([N+](=O)[O-])cc2)[nH]c2c(Br)ccc(Cl)c2c1=O [Compound 32, 3-acetyl-8-bromo-5-chloro-2-((4-nitrobenzyl)thio)quinolin-4(1H)-one]	< 1000
CC(=O)c1c(S(=O)(=O)Cc2ccccc2)[nH]c2c(Br)ccc(Cl)c2c1=O [Compound 34, 3-acetyl-2-(benzylsulfonyl)-8-bromo-5-chloroquinolin-4(1H)-one]	< 1000
CSc1c(C(C)=O)c(=O)c2c(Cl)ccc(Br)c2n1S(C)(=O)=O [Compound 35, 3-acetyl-8-bromo-5-chloro-1-(methylsulfonyl)-2-(methylthio)quinolin-4(1H)-one]	< 1000
CC(=O)c1c([S+](C)[O-])n(S(=O)(=O)C(F)(F)F)c2c(Br)ccc(Cl)c2c1=O (centres unmarked) [Compound 36, 3-acetyl-8-bromo-5-chloro-2-(methylsulfinyl)-1-((trifluoromethyl)sulfonyl)quinolin-4(1H)-one]	< 1000
CSc1c(C(C)=O)c(=O)c2c(Cl)ccc(Br)c2n1S(=O)(=O)c1ccc(Cl)cc1 [Compound 37, 3-acetyl-8-bromo-5-chloro-1-((4-chlorophenyl)sulfonyl)-2-(methylthio)quinolin-4(1H)-one]	< 1000
CSc1c(C(C)=O)c(=O)c2c(Cl)ccc(Br)c2n1S(=O)(=O)c1ccc([N+](=O)[O-])cc1 [Compound 38, 3-acetyl-8-bromo-5-chloro-2-(methylthio)-1-((4-nitrophenyl)sulfonyl)quinolin-4(1H)-one]	< 1000
CCS(=O)(=O)n1c([S+](C)[O-])c(C(C)=O)c(=O)c2c(Cl)ccc(Br)c21 (centres unmarked) [Compound 39, 3-acetyl-8-bromo-5-chloro-1-(ethylsulfonyl)-2-(methylsulfinyl)quinolin-4(1H)-one]	< 1000
CSc1c(C(C)=O)c(=O)c2c(Cl)ccc(Br)c2n1S(=O)(=O)c1ccc(C(C)(C)C)cc1 [Compound 40, 3-acetyl-8-bromo-1-((4-(tert-butyl)phenyl)sulfonyl)-5-chloro-2-(methylthio)quinolin-4(1H)-one]	< 1000
CC(=O)c1c(S(C)(=O)=O)n(S(=O)(=O)c2ccc(C(C)(C)C)cc2)c2c(Br)ccc(Cl)c2c1=O [Compound 41, 3-acetyl-8-bromo-1-((4-(tert-butyl)phenyl)sulfonyl)-5-chloro-2-(methylsulfonyl)quinolin-4(1H)-one]	< 1000
